# Test results published in ChEMBL document CHEMBL3885861, “Open TG-GATES”.
# Species: Rattus norvegicus
# Assay: Open TG-GATES - Regimen: Single
# Type: toxicity, organism-based, Sprague-Dawley
# Parameters: regimen Single, gender Male, age 6 weeks
# Conditions: in vivo, po, route gavage; for TP / gamma-GTP / ALT / AST / BUN / CRE / DBIL / GLC / IP / K / LDH / RALB / TBIL / TC / ALP / PL: tissue Plasma; for APTT / Bas / Eos / Fbg / Ht / Lym / MCHC / MCV / Mono / PT / Plat / RBC / Ret / WBC: tissue Blood; for KIDNEY_L / KIDNEY_R / KIDNEY_TOTAL: tissue Kidney; for LIVER: tissue Liver
# [1] = 30 mg/kg, 3 h, dose level Middle
# [2] = 30 mg/kg, 6 h, dose level Middle
# [3] = 30 mg/kg, 9 h, dose level Middle
# [4] = 30 mg/kg, 24 h, dose level Middle
# [5] = 100 mg/kg, 3 h, dose level High
# [6] = 100 mg/kg, 6 h, dose level High
# [7] = 100 mg/kg, 9 h, dose level High
# [8] = 100 mg/kg, 24 h, dose level High
compound,measurement,setting,value
CN(C)CCCN1c2ccccc2CCc2ccccc21 [IMIPRAMINE],TP,"10 mg/kg, 24 h, dose level Low",5.4 g/dL
same,gamma-GTP,"10 mg/kg, 24 h, dose level Low",1 IU/L
same,TERMINAL_BW,[1],202.2 g
same,APTT,[1],16.3 s
same,Bas,[1],0.2%
same,Eos,[1],1%
same,Fbg,[1],313 mg/dL
same,Ht,[1],42.7%
same,Lym,[1],78.8%
same,MCHC,[1],32.4%
same,MCV,[1],65.8 fL
same,Mono,[1],3%
same,PT,[1],15.6 s
same,Plat,[1],106.2 x10_4/uL
same,RBC,[1],651.2 x10_4/ul
same,Ret,[1],8.1%
same,WBC,[1],75.9 x10_2/uL
same,KIDNEY_L,[1],0.9 g
same,KIDNEY_R,[1],0.9 g
same,KIDNEY_TOTAL,[1],1.8 g
same,LIVER,[1],9.5 g
same,ALT,[1],43.4 IU/L
same,AST,[1],70.2 IU/L
same,BUN,[1],7.8 mg/dL
same,CRE,[1],0.1 mg/dL
same,DBIL,[1],0.008 mg/dL
same,GLC,[1],191.6 mg/dL
same,IP,[1],9.1 mg/dL
same,K,[1],4 meq/L
same,LDH,[1],88.4 IU/L
same,RALB,[1],2.6 g/dL
same,TBIL,[1],0.058 mg/dL
same,TC,[1],79.2 mg/dL
same,TP,[1],5.6 g/dL
same,gamma-GTP,[1],1 IU/L
same,TERMINAL_BW,[2],198.5 g
same,APTT,[2],16.1 s
same,Bas,[2],0%
same,Eos,[2],1%
same,Fbg,[2],311.6 mg/dL
same,Ht,[2],41.9%
same,Lym,[2],72.6%
same,MCHC,[2],32.7%
same,MCV,[2],63.9 fL
same,Mono,[2],3.2%
same,PT,[2],15.7 s
same,Plat,[2],122.8 x10_4/uL
same,RBC,[2],656 x10_4/ul
same,Ret,[2],7.6%
same,WBC,[2],81.3 x10_2/uL
same,KIDNEY_L,[2],0.9 g
same,KIDNEY_R,[2],0.9 g
same,KIDNEY_TOTAL,[2],1.8 g
same,ALP,[2],1270.6 IU/L
same,ALT,[2],40.2 IU/L
same,AST,[2],72.8 IU/L
same,BUN,[2],6.2 mg/dL
same,CRE,[2],0.1 mg/dL
same,DBIL,[2],0.01 mg/dL
same,GLC,[2],177.4 mg/dL
same,IP,[2],9.8 mg/dL
same,K,[2],4.1 meq/L
same,LDH,[2],138.2 IU/L
same,RALB,[2],2.5 g/dL
same,TBIL,[2],0.062 mg/dL
same,TC,[2],81.2 mg/dL
same,TP,[2],5.4 g/dL
same,gamma-GTP,[2],1.4 IU/L
same,TERMINAL_BW,[3],197.4 g
same,APTT,[3],15.4 s
same,Bas,[3],0%
same,Eos,[3],1%
same,Fbg,[3],290.8 mg/dL
same,Ht,[3],42.1%
same,Lym,[3],78.4%
same,MCHC,[3],32.5%
same,MCV,[3],65.8 fL
same,Mono,[3],1.8%
same,PT,[3],15.8 s
same,Plat,[3],111.8 x10_4/uL
same,RBC,[3],639.4 x10_4/ul
same,Ret,[3],7.8%
same,WBC,[3],69.2 x10_2/uL
same,KIDNEY_L,[3],0.9 g
same,KIDNEY_R,[3],1 g
same,KIDNEY_TOTAL,[3],1.9 g
same,LIVER,[3],8.4 g
same,ALP,[3],1205.4 IU/L
same,ALT,[3],35.8 IU/L
same,AST,[3],65.2 IU/L
same,BUN,[3],5.8 mg/dL
same,CRE,[3],0.1 mg/dL
same,DBIL,[3],0.01 mg/dL
same,GLC,[3],191 mg/dL
same,IP,[3],9.6 mg/dL
same,K,[3],4.1 meq/L
same,LDH,[3],64.6 IU/L
same,PL,[3],131.2 mg/dL
same,RALB,[3],2.5 g/dL
same,TBIL,[3],0.06 mg/dL
same,TC,[3],68 mg/dL
same,TP,[3],5.3 g/dL
same,gamma-GTP,[3],0.8 IU/L
same,TERMINAL_BW,[4],209.9 g
same,APTT,[4],16.1 s
same,Bas,[4],0%
same,Eos,[4],1%
same,Fbg,[4],298.2 mg/dL
same,Ht,[4],41.7%
same,Lym,[4],82%
same,MCHC,[4],32.6%
same,MCV,[4],64.6 fL
same,Mono,[4],2.4%
same,PT,[4],16.5 s
same,Plat,[4],119.3 x10_4/uL
same,RBC,[4],644.8 x10_4/ul
same,Ret,[4],7.6%
same,WBC,[4],75.5 x10_2/uL
same,KIDNEY_L,[4],0.9 g
same,KIDNEY_R,[4],0.9 g
same,KIDNEY_TOTAL,[4],1.8 g
same,LIVER,[4],9.2 g
same,ALP,[4],1509.8 IU/L
same,ALT,[4],45.6 IU/L
same,AST,[4],69.6 IU/L
same,CRE,[4],0.2 mg/dL
same,GLC,[4],177 mg/dL
same,IP,[4],7.8 mg/dL
same,K,[4],4.2 meq/L
same,LDH,[4],101.8 IU/L
same,RALB,[4],2.7 g/dL
same,TBIL,[4],0.06 mg/dL
same,TC,[4],85.2 mg/dL
same,TP,[4],5.6 g/dL
same,gamma-GTP,[4],1 IU/L
same,TERMINAL_BW,[5],202.6 g
same,APTT,[5],16.3 s
same,Bas,[5],0%
same,Eos,[5],0.5%
same,Fbg,[5],283.8 mg/dL
same,Ht,[5],40.4%
same,Lym,[5],72.5%
same,MCHC,[5],32.8%
same,MCV,[5],63.6 fL
same,Mono,[5],3.2%
same,PT,[5],15.8 s
same,Plat,[5],110.1 x10_4/uL
same,RBC,[5],635.8 x10_4/ul
same,Ret,[5],8.6%
same,WBC,[5],79.2 x10_2/uL
same,KIDNEY_L,[5],0.9 g
same,KIDNEY_R,[5],0.9 g
same,KIDNEY_TOTAL,[5],1.8 g
same,LIVER,[5],9.4 g
same,ALP,[5],1336.2 IU/L
same,ALT,[5],45 IU/L
same,AST,[5],73.5 IU/L
same,BUN,[5],6.8 mg/dL
same,CRE,[5],0.1 mg/dL
same,DBIL,[5],0.0125 mg/dL
same,GLC,[5],190.8 mg/dL
same,IP,[5],10 mg/dL
same,K,[5],3.9 meq/L
same,LDH,[5],61 IU/L
same,PL,[5],138 mg/dL
same,RALB,[5],2.5 g/dL
same,TBIL,[5],0.07 mg/dL
same,TC,[5],69 mg/dL
same,TP,[5],5.3 g/dL
same,gamma-GTP,[5],1.2 IU/L
same,TERMINAL_BW,[6],200.3 g
same,APTT,[6],15.9 s
same,Bas,[6],0%
same,Eos,[6],0.8%
same,Fbg,[6],299.4 mg/dL
same,Ht,[6],42.4%
same,Lym,[6],71.2%
same,MCHC,[6],32.2%
same,MCV,[6],66.2 fL
same,Mono,[6],3%
same,PT,[6],15.8 s
same,Plat,[6],108.9 x10_4/uL
same,RBC,[6],641.6 x10_4/ul
same,Ret,[6],8.3%
same,WBC,[6],74.4 x10_2/uL
same,KIDNEY_L,[6],0.9 g
same,KIDNEY_R,[6],0.9 g
same,KIDNEY_TOTAL,[6],1.8 g
same,ALP,[6],1251.8 IU/L
same,ALT,[6],37 IU/L
same,AST,[6],64.2 IU/L
same,BUN,[6],6.4 mg/dL
same,CRE,[6],0.1 mg/dL
same,DBIL,[6],0.01 mg/dL
same,GLC,[6],182 mg/dL
same,IP,[6],9.9 mg/dL
same,K,[6],4 meq/L
same,LDH,[6],62.8 IU/L
same,RALB,[6],2.5 g/dL
same,TBIL,[6],0.062 mg/dL
same,TC,[6],83.8 mg/dL
same,TP,[6],5.4 g/dL
same,gamma-GTP,[6],1.2 IU/L
same,TERMINAL_BW,[7],199.8 g
same,APTT,[7],16.1 s
same,Bas,[7],0.2%
same,Eos,[7],0.8%
same,Fbg,[7],309.4 mg/dL
same,Ht,[7],42%
same,Lym,[7],73%
same,MCHC,[7],32.2%
same,MCV,[7],66.8 fL
same,Mono,[7],2.4%
same,PT,[7],15.8 s
same,Plat,[7],111.5 x10_4/uL
same,RBC,[7],629.2 x10_4/ul
same,Ret,[7],8.8%
same,WBC,[7],70.8 x10_2/uL
same,KIDNEY_L,[7],0.9 g
same,KIDNEY_R,[7],0.9 g
same,KIDNEY_TOTAL,[7],1.8 g
same,LIVER,[7],8.3 g
same,ALP,[7],1131.2 IU/L
same,ALT,[7],35.6 IU/L
same,AST,[7],63.6 IU/L
same,BUN,[7],5.2 mg/dL
same,CRE,[7],0.1 mg/dL
same,GLC,[7],179.2 mg/dL
same,IP,[7],10.2 mg/dL
same,K,[7],4.1 meq/L
same,LDH,[7],59.2 IU/L
same,RALB,[7],2.5 g/dL
same,TBIL,[7],0.056 mg/dL
same,TC,[7],80.8 mg/dL
same,TP,[7],5.4 g/dL
same,gamma-GTP,[7],1 IU/L
same,TERMINAL_BW,[8],198.2 g
same,APTT,[8],16 s
same,Bas,[8],0%
same,Eos,[8],0.6%
same,Fbg,[8],293.2 mg/dL
same,Ht,[8],42.6%
same,Lym,[8],82.6%
same,MCHC,[8],32.4%
same,MCV,[8],65.1 fL
same,Mono,[8],2%
same,PT,[8],16.6 s
same,Plat,[8],116.4 x10_4/uL
same,RBC,[8],655.2 x10_4/ul
same,Ret,[8],7.3%
same,WBC,[8],49 x10_2/uL
same,KIDNEY_L,[8],0.9 g
same,KIDNEY_R,[8],0.9 g
same,KIDNEY_TOTAL,[8],1.8 g
same,LIVER,[8],8.1 g
same,ALP,[8],1350.6 IU/L
same,ALT,[8],35.4 IU/L
same,AST,[8],61 IU/L
same,BUN,[8],12.8 mg/dL
same,CRE,[8],0.2 mg/dL
same,DBIL,[8],0.02 mg/dL
same,GLC,[8],176.4 mg/dL
same,IP,[8],8.2 mg/dL
same,K,[8],4.5 meq/L
same,LDH,[8],62.8 IU/L
same,PL,[8],137.8 mg/dL
same,RALB,[8],2.6 g/dL
same,TBIL,[8],0.062 mg/dL
same,TC,[8],83.2 mg/dL
same,TP,[8],5.6 g/dL
same,gamma-GTP,[8],1.2 IU/L
